T1: Saccharomyces cerevisiae invertase (Saccharomyces cerevisiae, UniProt P00724)
T1 sequence (P00724 20-532): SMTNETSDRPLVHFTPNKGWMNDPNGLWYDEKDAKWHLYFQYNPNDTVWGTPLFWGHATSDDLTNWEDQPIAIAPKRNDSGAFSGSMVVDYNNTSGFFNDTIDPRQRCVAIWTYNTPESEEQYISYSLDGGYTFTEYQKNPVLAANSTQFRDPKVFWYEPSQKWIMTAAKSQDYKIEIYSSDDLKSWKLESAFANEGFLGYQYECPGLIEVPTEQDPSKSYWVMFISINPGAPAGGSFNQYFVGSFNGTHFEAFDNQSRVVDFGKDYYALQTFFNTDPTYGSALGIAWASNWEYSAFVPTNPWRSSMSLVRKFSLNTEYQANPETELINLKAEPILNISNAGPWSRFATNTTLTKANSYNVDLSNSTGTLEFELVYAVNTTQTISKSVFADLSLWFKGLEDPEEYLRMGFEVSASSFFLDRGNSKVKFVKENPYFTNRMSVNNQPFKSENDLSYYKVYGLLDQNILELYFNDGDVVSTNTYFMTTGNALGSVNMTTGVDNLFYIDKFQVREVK

B1: enzyme D: Cichorium intybus 1-FEH IIa with W82 homologue replaced by leucine; also reported by Verhaest et al. 2007 (protein)
chain: QQIEQPYRTGYHFQPPSNWMNDPNGPMLYQGVYHFFYQYNPYAATFGDVIIWGHAVSYDLVNWIHLDPAIYPTQEADSKSCLSGSATILPGNIPAMLYTGSDSKSRQVQDLAWPKNLSDPFLREWVKHPKNPLITPPEGVKDDCFRDPSTAWLGPDGVWRIVVGGDRDNNGMAFLYQSTDFVNWKRYDQPLSSADATGTWECPDFYPVPLNSTNGLDTSVYGGSVRHVMKAGFEGHDWYTIGTYSPDRENFLPQNGLSLTGSTLDLRYDYGQFYASKSFFDDAKNRRVLWAWVPETDSQADDIEKGWAGLQSFPRALWIDRNGKQLIQWPVEEIEELRQNQVNLQNKNLKPGSVLEIHGIAASQADVTISFKLEGLKEAEVLDTTLVDPQALCNERGASSRGALGPFGLLAMASKDLKEQSAIFFRVFQNQLGRYSVLMCSDLSRSTVRSNIDTTSYGAFVDIDPRSEEISLRNLIDHSIIESFGAGGKTCITSRIYPKFVNNEEAHLFVFNNGTQNVKISEMSAWSMKNAKFVVDQSVKSAA
modifications: Fructan 1-exohydrolase precursor (W120L)

Legend:
[1] = biological target: T1, Saccharomyces cerevisiae invertase; conditions: cited from earlier work; for Activity: substrate hydrolysed by S. cerevisiae invertase, Sainz-Polo et al., 2013; for Activity of S. cerevisiae invertase with the oligosaccharide as substrate: Sainz-Polo et al. 2013
[2] = cited from earlier work
[3] = Sucrose inhibition assay of 1-kestose hydrolysis by partially purified recombinant 1-FEH targets (HPAEC-PAD, fructose released); type: biochemical; conditions: 380 mM sucrose; 10 mM 1-kestose, 1 hour, 30° C., pH6.0
Method: The enzymes A, B, C and D were expressed in Pichia pastoris KM71H strain with a fusion GFP protein at C-terminal in 300 mL of culture media. After 48-hour induction with 0.5% (v/v) […] of methanol, the recombinant proteins were partially purified by precipitation with ammonium sulphate at 70% of saturation, followed by solubilization with sodium phosphate buffer 50 mM pH6.0. The partially purified proteins were concentrated and analyzed by SDS-PAGE and blue-light transluminator for GFP fluorescence. The enzymatic activity assays of the partially purified enzymes were evaluated using 10 mM 1-kestose as substrate, 50 uL of enzyme and sucrose as inhibitor ranging from zero to 380 mM, in a 100 μL-reaction buffered with sodium phosphate 50 mM pH6.0. The reactions were carried for 1 hour at 30° C. and stopped by heating at 95° C. for 5 minutes. The reactions were than diluted to 4 mL with ultrapure water and analyzed high-pressure anion-exchange chromatography with pulsed amperometric detection (HPAEC-PAD, Dionex, Sunnyvale, Calif., USA). Enzyme relative activity was determined by the amount of fructose released.
After identifying that the chosen targets are active against 1-kestose but not sucrose, we performed sucrose inhibition studies in which the amount of enzyme and substrate were fixed and increasing concentrations of sucrose were added to the reaction. […]

[4] = 10 mM sucrose, Verhaest et al., 2007

| Molecule | Activity [1] | Activity of S. cerevisiae invertase with the oligosaccharide as substrate [1] | other results |
| --- | --- | --- | --- |
| OC[C@H]1O[C@@](CO)(OC[C@@]2(O[C@H]3O[C@H](CO)[C@@H](O)[C@H](O)[C@H]3O)O[C@H](CO)[C@@H](O)[C@@H]2O)[C@@H](O)[C@@H]1O [1-Kestose, β-D-fructofuranosyl-(2→1)-β-D-fructofuranosyl α-D-glucopyranoside] | 102 ± 11 µmol/min/mg | – | – |
| OC[C@H]1O[C@@](CO)(OC[C@@]2(OC[C@@]3(O[C@H]4O[C@H](CO)[C@@H](O)[C@H](O)[C@H]4O)O[C@H](CO)[C@@H](O)[C@@H]3O)O[C@H](CO)[C@@H](O)[C@@H]2O)[C@@H](O)[C@@H]1O [Nystose] | 36 ± 1 µmol/min/mg | hydrolyzed at a much lower rate | – |
| OC[C@H]1O[C@H](OC[C@H]2O[C@H](O[C@]3(CO)O[C@H](CO)[C@@H](O)[C@@H]3O)[C@H](O)[C@@H](O)[C@@H]2O)[C@H](O)[C@@H](O)[C@H]1O [Raffinose] | 187 ± 8 µmol/min/mg | – | – |
| OC[C@H]1O[C@@](CO)(O[C@H]2O[C@H](CO)[C@@H](O)[C@H](O)[C@H]2O)[C@@H](O)[C@@H]1O [Sucrose, sucrose] | 520 ± 20 µmol/min/mg | highest efficiency | – |
| Inulin | 2.5 ± 0.1 µmol/min/mg | No significant activity | – |
| B1 | – | – | inhibition by sucrose (text) [2, 4]: 0%; inhibition by sucrose (words) [2, 4]: no longer inhibited; % inhibition by sucrose ([2]; 10 mM sucrose): 0% with 10 mM; Sucrose inhibition ([2]; Weak / Strong, Table 3): Weak; inhibition by sucrose as described in the literature ([2]; no sucrose concentration stated): strongly inhibited; inhibition by sucrose [3]: 52% |
